Series [1] is described as follows: Rodent brain penetration study. The series is classed as in vivo, Male Wistar rats. The following applies: male, Wistar, brain and plasma, po; rat, 3 mg/kg, p.o. @ 1 h; read-out: Rat Brain Penetration (Cbrain/Cplasma). As for the experimental part:
Example-50: Rodent Brain Penetration Study Male Wistar rats (260±40 g) were used as experimental animals. Three animals were housed in each cage. Animals were given water and food ad libitum throughout the experiment and maintained on a 12 h light/dark cycle. Brain penetration was determined in discrete manner in rats. One day prior to dosing day, male Wistar rats were acclimatized and randomly grouped according to their weight. At each time point (0.50, 1 and 2 h) n=3 animals were used. The test compounds were suitably preformulated and administered orally at (free base equivalent) 3 mg/kg. Blood samples were removed via cardiac puncture by using isoflurane anesthesia. The animals were sacrificed to collect brain tissue. Plasma was separated and brain samples were homogenized and stored frozen at −20° C. until analysis. The concentrations of the test compounds in plasma and brain were determined using LC-MS/MS method. The test compounds were quantified in plasma and brain homogenate by qualified LC-MS/MS method using suitable extraction technique in the calibration range of 1-2000 ng/mL. Study samples were analyzed using calibration samples in the batch and quality control samples spread across the batch. Extent of brain-plasma ratio (Cbrain/Cplasma) was calculated

Series [2] in a line: Rodent pharmacokinetic study. The series is classed as in vivo, Male Wistar rats. The following applies: male, Wistar, plasma, rat; for bioavailability: oral 3 mg/kg vs intravenous 1 mg/kg, read-out: F (Bioavailability). Here is the method:
Example-49: Rodent Pharmacokinetic Study
Male Wistar rats (250±50 grams) were used as experimental animals. Animals were housed individually in polypropylene cages. Two days prior to study, male Wistar rats were anesthetized with isoflurane for surgical placement of jugular vein catheter. Rats were randomly divided for oral (3 mg/kg and 10 mL/kg as dose volume) and intravenous (1 mg/kg and 2.0 mL/kg as dose volume) dosing (n=3/group) and fasted overnight before oral dosing (p.o.). However, rats allocated to intravenous dosing food and water was provided ad libitum.
Intravenous formulation was prepared by using 5% Pharmasolve+45% Propylene Glycol+50% PEG 400 as vehicle. For Oral, formulation was prepared by using 0.25% Tween 80+99.75% of 1% (w/v) hydroxyethylcellulose solution as a vehicle. The dose formulations were prepared freshly on the day of dosing.
After dosing of animal, each time point a 200 μL of blood sample was collected through the jugular vein and replenished with an equivalent volume of normal saline. Collected blood sample was transferred into a labeled eppendorf tube containing 10 μL of sodium heparin (1000 IU/mL) as an anticoagulant. Typically blood samples were collected at following time points: 0.08, 0.25, 0.5, 1, 2, 4, 6, 8, and 24 h post dose. Blood was centrifuged at 4000 revolutions per minute (rpm) for 10 min. Plasma was separated and stored frozen at −80° C. until analysis. The concentrations of the test compounds were quantified in plasma by qualified LC-MS/MS method using suitable extraction technique in the calibration range around 1-2000 ng/mL in plasma. Study samples were analyzed using calibration samples in the batch and quality control samples spread across the batch.
Pharmacokinetic parameters Cmax, AUC0-t, t1/2, Clearance and Bioavailability (F) were calculated using standard non-compartmental model by using Phoenix WinNonlin 8.1 version Software package.

In series [3] the test system is amphetamine-induced hyperlocomotion. Put plainly: Amphetamine-induced open field assay. The series is classed as in vivo, Male Wistar rats. To be noted: rats, 3, 10, 30 mg/kg, p.o., vs Amphetamine (2.5 mg/kg, i.p.) treated group. Here is the method:
Example-51: Amphetamine-Induced Open Filed Assay
Male Wistar rats of 230-250 g weight were used. The body weights of the rats were recorded. Rats were randomized according to their body weights. Animals were brought to the laboratory 1 h prior to acclimatizing to the laboratory conditions. The open field is black colored arena of 51×51×51 cm enclosed by black plastic walls of same dimensions. Rats were habituated to the open field arena for a period of 15 min. Animals were administered respective treatments (Vehicle or Example-2) 60 min prior to the trial. After 30 min, animals were challenged with amphetamine (2.5 mg/kg, i.p.) or vehicle. Then the animals were placed in open field arenas and distance traveled by […] was tracked for 15 min using Videomot software. Data was analyzed using GraphPad prism.

The next series concerns motor coordination. In words: Rat rotarod assay. The following applies: rats, doses of 3 & 10 mg/kg, 60 min prior to trial. It is filed as in vivo. Here is the method: Example-52: Rat Rotarod Assay
The rotarod test was employed to investigate the possible effect of Example-2 on motor coordination. Twenty hours prior to the test, rats were trained to remain on revolving bar (4 rpm) of the rotarod apparatus (TSE Systems; GmHb, Germany). Animals that successfully stayed on rotating rod for 60 seconds (out of 4 trials per animal) were selected for further study. […] A single trial was carried out on the next day. Animals that were able to stay on the rotating rod for 60 seconds were chosen for further study. Animals were administered Example-2 or Vehicle 60 min prior to the trial. The latency to fall from the rotating rod was noted.
(Falling from the rotarod earlier than controls is read as motor impairment.)

For series [4], the target named is T1, human dopamine D2s receptor (Homo sapiens, UniProt P14416).
T1 construct: expressed in transfected cells; host or cells: CHO-K1
T1 sequence (P14416 1-414 isoform P14416-2): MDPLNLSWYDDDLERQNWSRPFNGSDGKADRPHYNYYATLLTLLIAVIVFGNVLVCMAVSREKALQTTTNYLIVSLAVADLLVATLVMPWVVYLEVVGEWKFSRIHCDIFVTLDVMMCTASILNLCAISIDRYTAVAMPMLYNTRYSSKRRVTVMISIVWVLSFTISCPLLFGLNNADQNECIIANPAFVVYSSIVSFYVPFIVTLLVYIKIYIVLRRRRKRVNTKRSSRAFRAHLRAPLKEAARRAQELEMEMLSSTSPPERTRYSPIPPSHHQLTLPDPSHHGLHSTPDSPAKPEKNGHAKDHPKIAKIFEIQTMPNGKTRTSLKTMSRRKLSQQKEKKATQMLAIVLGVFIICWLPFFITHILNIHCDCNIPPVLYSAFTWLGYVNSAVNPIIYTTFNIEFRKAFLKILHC
Put plainly: Determination of Ki values at D2S receptor ([3H]-Raclopride radioligand binding). To be noted: hD2 (D2S), CHO-K1, [3H]-Raclopride 4 nM; read-out: Ki D2. As for the experimental part:
Example-45: Determination of Ki Values at D2S Receptor
• Receptor source: Recombinant mammalian cells (CHO-K1) • Radioligand: [^3H]-Raclopride (80.8 Ci/mmol) • Final ligand concentration: 4 nM • Non-specific determinant: 0.1 mM Haloperidol • Reference compound: Haloperidol • Positive control: Haloperidol Incubation conditions: Reactions were carried out in buffer with pH 7.4 containing 50 mM Tris-HCl, 120 mM NaCl, 5 mM KCl, 5 mM MgCl2, 1 mM EDTA for 2 h at RT. The reaction was terminated by rapid vacuum filtration onto the glass fiber filters. Radioactivity trapped onto the filters was determined and compared to the control values in order to ascertain any interactions of the test compound(s) with cloned human dopamine D2s receptor binding site.

Each structure is given as a SMILES string. Counter-ions that a name gives are not always drawn.

In general, bioavailability refers to dose-corrected exposure relative to a reference, in per cent. As usually defined, the AUC(0-t) is the area under the concentration-time curve up to a stated or last time point. Lower therefore signals low exposure. One may read the half-life as the time in which the quantity being followed falls by half. The term Cmax denotes the maximum level reached in the sampled fluid or tissue. What is called Ki is the dissociation constant of the complex between target and ligand, obtained from inhibition or displacement. Take `Cc1nnc(-c2csc(OCCCN3CCN(c4nsc5ccccc45)CC3)n2)o1` [Example-2, 3-(4-{3-[4-(5-Methyl-[1,3,4]oxadiazol-2-yl)-thiazol-2-yloxy]-propyl}-piperazin-1-yl)-benzo[d]isothiazole oxalate]: the Kp at 1 h in series [1] worked out at 1.25. In series [2], the bioavailability worked out at 46 ± 2%. Also, in series [2] (intravenous (bolus), 1 mg/kg), the AUC(0-t) is 575 ± 60.8 ng·h/mL and the half-life is 1.98 ± 0.96 h. In series [2] (oral (gavage), 3 mg/kg), this compound came in with an AUC(0-t) of 795 ± 34.5 ng·h/mL and a Cmax of 724 ± 170 ng/mL. Besides, in series [3], the “Effect on amphetamine-induced locomotion (distance traveled)” value is on record as “significant decrease in locomotion”. Further, the “Effect on motor coordination (latency to fall from rotating rod)” value in the series with motor coordination is given as “No notable effects on motor coordination”. In addition, the Ki in series [4] came out at 410 pM.

For `Cc1noc(-c2csc(OCCCN3CCN(c4nsc5ccccc45)CC3)n2)n1` [compound 12, 3-(4-{3-[4-(3-Methyl-[1,2,4]oxadiazol-5-yl)-thiazol-2-yloxy]-propyl}-piperazin-1-yl)-benzo[d]isothiazole oxalate], the Kp at 1 h in series [1] is 2.09. Moreover, in series [2], the bioavailability is 18 ± 4.3%. Moreover, in series [2] (intravenous (bolus), 1 mg/kg), the AUC(0-t) amounted to 467 ± 115 ng·h/mL and the half-life is 2.59 ± 0.49 h. In series [2] (oral (gavage), 3 mg/kg), this compound yielded an AUC(0-t) of 250 ± 60 ng·h/mL and a Cmax of 279 ± 59.2 ng/mL. Moreover, in series [4], the Ki was 400 pM.

The record behind these values is US12338236B2, “Benzoisothiazole and benzoisoxazole compounds for the treatment of mental disorders” (SUVEN LIFE SCIENCES LIMITED, priority 2022, dated 2025).
